Measurements taken from US11225503B2, “Crystobactamides” (HELMHOLTZ-ZENTRUM FÜR INFEKTIONSFORSCHUNG GMBH, priority 2013, dated 2022).

Tested on: Cystobacter velatus MCy8071
Assay: Antibiotic resistance of the producer strain
Format: cell-based
Conditions: final concentration of all antibiotics 50 μg ml^−1
Method: MCy8071 is resistant against the following antibiotics: ampicillin, gentamycin, hygromycin, polymycin, bacitracin, spectinomycin, neomycin, and fusidinic acid. Weak growth is possible with cephalosporin and kasugamycin and no growth is possible with thiostrepton, trimethoprin, kanamycin, and oxytetracycline (final concentration of all antibiotics was adjusted to 50 μg ml^−1).

Row | Compound | growth of strain MCy8071 in presence of the antibiotic
1 | C[C@H]1O[C@H](O[C@H]2[C@H](O)[C@@H](O)[C@@H](O)[C@H](O)[C@@H]2O)[C@@H](N)C[C@@H]1NC(=N)C(=O)O [kasugamycin] | Weak growth
2 | CN[C@@H]1[C@H](O)[C@H](NC)[C@H]2O[C@@]3(O)C(=O)C[C@@H](C)O[C@H]3O[C@@H]2[C@H]1O [spectinomycin] | resistant
3 | C=C(NC(=O)C(=C)NC(=O)c1csc(C2=N[C@@H]3c4csc(n4)[C@H]4NC(=O)c5csc(n5)[C@H]([C@](C)(O)[C@@H](C)O)NC(=O)[C@H]5CSC(=N5)/C(=C/C)NC(=O)[C@H]([C@@H](C)O)NC(=O)c5csc(n5)[C@]3(CC2)NC(=O)[C@H](C)NC(=O)C(=C)NC(=O)[C@H](C)NC(=O)[C@H]([C@@H](C)CC)N[C@@H]2C=Cc3c([C@H](C)O)cc(nc3[C@H]2O)C(=O)O[C@@H]4C)n1)C(N)=O [thiostrepton] | no growth
4 | COc1cc(Cc2cnc(N)nc2N)cc(OC)c1OC [trimethoprin] | no growth
5 | gentamycin | resistant
6 | neomycin | resistant
7 | polymycin | resistant
